Like-named read-outs stand apart in the source and are kept apart here.
System: patients with acute coronary syndromes undergoing PCI
[1] = 48-hour, MITT Without STEMI, cangrelor vs clopidogrel
[2] = 48-hour, MITT Without STEMI, exploratory
[3] = 48 hours, ITT With STEMI, Cangrelor vs Clopidogrel
[4] = 48 hours, ITT Without STEMI, Cangrelor vs Clopidogrel
[5] = 48 hours, ITT, Cangrelor vs Clopidogrel
[6] = 48 hours, MITT With STEMI, Cangrelor vs Clopidogrel
[7] = 48 hours, MITT Without STEMI, Cangrelor vs Clopidogrel
[8] = 48 hours, MITT, Cangrelor vs Clopidogrel

## CSCCNc1nc(SCCC(F)(F)F)nc2c1ncn2[C@@H]1O[C@H](COP(=O)(O)OP(=O)(O)C(Cl)(Cl)P(=O)(O)O)[C@@H](O)[C@H]1O [Cangrelor, cangrelor]
48-hour, MITT Without STEMI
  All-cause mortality: 8 (0.2)
  IDR: 13 (0.3)
  MI: 278 (7.1)
  Mortality/MI/IDR (primary endpoint): 290 (7.5)
  Q-wave MI: 4 (0.1)
  Stent thrombosis: 7 (0.2)
  Stroke: 6 (0.2)
[1]
  OR (95% CI): All-cause mortality: 1.59 (0.52, 4.87)
  OR (95% CI): IDR: 0.56 (0.28, 1.11)
  OR (95% CI): MI: 1.09 (0.91, 1.29)
  OR (95% CI): Mortality/Q-wave MI/IDR: 0.67 (0.39, 1.14)
  OR (95% CI): Mortality/Q-wave MI/Stent thrombosis: 0.78 (0.42, 1.44)
  OR (95% CI): Q-wave MI: 0.40 (0.12, 1.27)
  OR (95% CI): Stent thrombosis: 0.63 (0.25, 1.63)
  OR (95% CI): Stroke: 0.85 (0.29, 2.54)
[2]
  Mortality/Q-wave MI/IDR: 23 (0.6)
  Mortality/Q-wave MI/Stent thrombosis: 18 (0.5)
48 hours, ITT
  All-cause mortality: 9 (0.2) no. (%)
  IDR: 21 (0.5) no. (%)
  MI: 294 (6.7) no. (%)
  Mortality/MI/IDR: 312 (7.1) no. (%)
  Mortality/Q-wave MI/IDR: 32 (0.7) no. (%)
  Mortality/Q-wave MI/Stent thrombosis: 23 (0.5) no. (%)
  Q-wave MI: 4 (0.1) no. (%)
  Stent thrombosis: 11 (0.2) no. (%)
  Stroke: 6 (0.1) no. (%)
48 hours, ITT With STEMI
  All-cause mortality: 1 (0.2) no. (%)
  IDR: 6 (1.2) no. (%)
  MI: 16 (3.3) no. (%)
  Mortality/MI/IDR: 20 (4.1) no. (%)
  Mortality/Q-wave MI/IDR: 7 (1.5) no. (%)
  Mortality/Q-wave MI/Stent thrombosis: 5 (1.0) no. (%)
  Q-wave MI: 0 (0.0) no. (%)
  Stent thrombosis: 4 (0.8) no. (%)
  Stroke: 0 (0.0) no. (%)
[3]
  All-cause mortality OR (95% CI): 0.209 (0.024, 1.793)
  IDR OR (95% CI): 0.786 (0.271, 2.283)
  MI OR (95% CI): 1.900 (0.831, 4.341)
  Mortality/MI/IDR OR (95% CI): 1.054 (0.560, 1.985)
  Mortality/Q-wave MI/IDR OR (95% CI): 0.560 (0.222, 1.416)
  Mortality/Q-wave MI/Stent thrombosis OR (95% CI): 0.580 (0.193, 1.743)
  Stent thrombosis OR (95% CI): 1.052 (0.262, 4.321)
48 hours, ITT Without STEMI
  All-cause mortality: 8 (0.2) no. (%)
  IDR: 15 (0.4) no. (%)
  MI: 278 (7.1) no. (%)
  Mortality/MI/IDR: 292 (7.4) no. (%)
  Mortality/Q-wave MI/IDR: 25 (0.6) no. (%)
  Mortality/Q-wave MI/Stent thrombosis: 18 (0.5) no. (%)
  Q-wave MI: 4 (0.1) no. (%)
  Stent thrombosis: 7 (0.2) no. (%)
  Stroke: 6 (0.2) no. (%)
[4]
  All-cause mortality OR (95% CI): 1.331 (0.461, 3.839)
  IDR OR (95% CI): 0.649 (0.338, 1.246)
  MI OR (95% CI): 1.090 (0.914, 1.299)
  Mortality/MI/IDR OR (95% CI): 1.056 (0.890, 1.252)
  Mortality/Q-wave MI/IDR OR (95% CI): 0.711 (0.425, 1.190)
  Mortality/Q-wave MI/Stent thrombosis OR (95% CI): 0.747 (0.405, 1.379)
  Q-wave MI OR (95% CI): 0.398 (0.125, 1.272)
  Stent thrombosis OR (95% CI): 0.634 (0.246, 1.638)
  Stroke OR (95% CI): 0.855 (0.287, 2.546)
[5]
  All-cause mortality OR (95% CI): 0.821 (0.340, 1.983)
  IDR OR (95% CI): 0.678 (0.389, 1.182)
  MI OR (95% CI): 1.122 (0.945, 1.331)
  Mortality/MI/IDR OR (95% CI): 1.058 (0.898, 1.248)
  Mortality/Q-wave MI/IDR OR (95% CI): 0.667 (0.425, 1.045)
  Mortality/Q-wave MI/Stent thrombosis OR (95% CI): 0.698 (0.409, 1.191)
  Q-wave MI OR (95% CI): 0.401 (0.126, 1.279)
  Stent thrombosis OR (95% CI): 0.735 (0.337, 1.603)
  Stroke OR (95% CI): 0.752 (0.261, 2.170)
48 hours, MITT
  All-cause mortality: 9 (0.2) no. (%)
  IDR: 19 (0.4) no. (%)
  MI: 292 (6.7) no. (%)
  Mortality/MI/IDR: 308 (7.1) no. (%)
  Mortality/Q-wave MI/IDR: 30 (0.7) no. (%)
  Mortality/Q-wave MI/Stent thrombosis: 23 (0.5) no. (%)
  Q-wave MI: 4 (0.1) no. (%)
  Stent thrombosis: 11 (0.3) no. (%)
  Stroke: 6 (0.1) no. (%)
48 hours, MITT With STEMI
  All-cause mortality: 1 (0.2) no. (%)
  IDR: 6 (1.3) no. (%)
  MI: 14 (3.1) no. (%)
  Mortality/MI/IDR: 18 (4.0) no. (%)
  Mortality/Q-wave MI/IDR: 7 (1.6) no. (%)
  Mortality/Q-wave MI/Stent thrombosis: 5 (1.1) no. (%)
  Q-wave MI: 0 (0.0) no. (%)
  Stent thrombosis: 4 (0.9) no. (%)
  Stroke: 0 (0.0) no. (%)
[6]
  All-cause mortality OR (95% CI): 0.249 (0.028, 2.235)
  IDR OR (95% CI): 0.857 (0.286, 2.571)
  MI OR (95% CI): 1.778 (0.739, 4.282)
  Mortality/MI/IDR OR (95% CI): 1.064 (0.541, 2.092)
  Mortality/Q-wave MI/IDR OR (95% CI): 0.632 (0.243, 1.645)
  Mortality/Q-wave MI/Stent thrombosis OR (95% CI): 0.622 (0.202, 1.917)
  Stent thrombosis OR (95% CI): 1.002 (0.249, 4.033)
48 hours, MITT Without STEMI
  All-cause mortality: 8 (0.2) no. (%)
  IDR: 13 (0.3) no. (%)
  MI: 278 (7.1) no. (%)
  Mortality/MI/IDR (Prespecified primary endpoint): 290 (7.5) no. (%)
  Mortality/Q-wave MI/IDR: 23 (0.6) no. (%)
  Mortality/Q-wave MI/Stent thrombosis: 18 (0.5) no. (%)
  Q-wave MI: 4 (0.1) no. (%)
  Stent thrombosis: 7 (0.2) no. (%)
  Stroke: 6 (0.2) no. (%)
  primary composite of all-cause mortality, MI, or ischemia-driven revascularization: 7.5%
[7]
  All-cause mortality OR (95% CI): 1.591 (0.520, 4.869)
  IDR OR (95% CI): 0.560 (0.283, 1.108)
  MI OR (95% CI): 1.085 (0.910, 1.294)
  Mortality/MI/IDR (Prespecified primary endpoint) OR (95% CI): 1.048 (0.883, 1.243)
  Mortality/Q-wave MI/IDR OR (95% CI): 0.670 (0.394, 1.140)
  Mortality/Q-wave MI/Stent thrombosis OR (95% CI): 0.777 (0.419, 1.442)
  Q-wave MI OR (95% CI): 0.397 (0.124, 1.267)
  Stent thrombosis OR (95% CI): 0.632 (0.245, 1.631)
  Stroke OR (95% CI): 0.852 (0.286, 2.536)
[8]
  All-cause mortality OR (95% CI): 0.995 (0.394, 2.508)
  IDR OR (95% CI): 0.628 (0.353, 1.118)
  MI OR (95% CI): 1.107 (0.932, 1.315)
  Mortality/MI/IDR OR (95% CI): 1.049 (0.889, 1.238)
  Mortality/Q-wave MI/IDR OR (95% CI): 0.661 (0.416, 1.051)
  Mortality/Q-wave MI/Stent thrombosis OR (95% CI): 0.737 (0.429, 1.265)
  Q-wave MI OR (95% CI): 0.397 (0.125, 1.268)
  Stent thrombosis OR (95% CI): 0.729 (0.334, 1.588)
  Stroke OR (95% CI): 0.852 (0.286, 2.538)
48 hours, Safety population
  All-cause mortality: 9 (0.2) no. (%)
  IDR: 19 (0.4) no. (%)
  MI: 294 (6.7) no. (%)
  Mortality/MI/IDR: 310 (7.1) no. (%)
  Mortality/Q-wave MI/IDR: 30 (0.7) no. (%)
  Mortality/Q-wave MI/Stent thrombosis: 23 (0.5) no. (%)
  Q-wave MI: 4 (0.1) no. (%)
  Stent thrombosis: 11 (0.3) no. (%)
  Stroke: 6 (0.1) no. (%)
30 days, ITT
  All-cause mortality: 40 (0.9) no. (%)
  IDR: 62 (1.4) no. (%)
  MI: 318 (7.3) no. (%)
  Mortality/MI/IDR: 381 (8.7) no. (%)
  Mortality/Q-wave MI/IDR: 102 (2.3) no. (%)
  Mortality/Q-wave MI/Stent thrombosis: 68 (1.6) no. (%)
  Q-wave MI: 9 (0.2) no. (%)

From patent US8680052B1, “Methods of treating, reducing the incidence of, and/or preventing ischemic events” (The Medicines Company, priority 2013, dated 2014)
